According to patent US20230278972A1, “SUBSTITUTED HALOALKYL SULFONANILIDE HERBICIDES” (FMC Corporation, priority 2020, published 2023):

Columns and labels:
Format in all cases: in vivo
soybean (Glycine max) [1] = test: Test A1 preemergence, soybean
Summary of the method: (§1)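 Pre: seeds in loam/sand blend, directed soil spray. Post: potted plants, same soil, 2–10 cm, 1–2 leaf stage. Chemicals in non-phytotoxic solvent + surfactant for both.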

[2] = system: Ryegrass, Italian (Italian ryegrass, Lolium multiflorum); test: Test A1 preemergence, Ryegrass, Italian
Summary of the method: as §1

[3] = system: wheat (Triticum aestivum); test: Test A1 postemergence, wheat; details: for Plant response rating, Wheat: Postemergence
Summary of the method: (§2)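 Herbicidal response was scored on plants treated either preemergence, by directed spray onto soil of a loam–sand blend after sowing, or postemergence on potted plants at the one- to two-leaf stage, 2–10 cm high. Test chemicals were carried in a non-phytotoxic solvent mix with surfactant.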

[4] = system: ragweed (common ragweed, Ambrosia artemisiifolia); test: Test A1 preemergence, ragweed
Summary of the method: as §1

[5] = system: wheat (Triticum aestivum); test: Test A1 preemergence, wheat
Summary of the method: as §1

kochia (Bassia scoparia) [6] = test: Test A1 preemergence, kochia
Summary of the method: as §1

[7] = system: blackgrass (Alopecurus myosuroides); test: Test A1 preemergence, blackgrass
Summary of the method: as §1

[8] = system: galium (catchweed bedstraw, Galium aparine); test: Test A1 postemergence, galium; details: for Plant response rating, Galium: Postemergence
Summary of the method: as §2

[9] = system: Oat, Wild (wild oat, Avena fatua); test: Test A1 preemergence, Oat, Wild
Summary of the method: as §1

[10] = system: goosegrass (Eleusine indica); test: Test A1 preemergence, goosegrass
Summary of the method: as §1

[11] = system: Foxtail, Giant (giant foxtail, Setaria faberi); test: Test A1 postemergence, Foxtail, Giant; details: for Plant response rating, Foxtail, Giant: Postemergence
Summary of the method: as §2

corn (Zea mays) [12] = test: Test A1 preemergence, corn
Summary of the method: (§3)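 Both timings started from seed in a loam-sand blend. Preemergence pots got a directed soil application immediately; postemergence pots were sprayed when seedlings had one or two leaves and stood 2–10 cm. Each compound was prepared in a non-phytotoxic solvent plus surfactant.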

[13] = system: Foxtail, Giant (giant foxtail, Setaria faberi); test: Test A1 preemergence, Foxtail, Giant
Summary of the method: as §1

kochia (Bassia scoparia) [14] = test: Test A1 postemergence, kochia; details: for Plant response rating, Kochia: Postemergence
Summary of the method: as §2

[15] = system: Oat, Wild (wild oat, Avena fatua); test: Test A1 postemergence, Oat, Wild; details: for Plant response rating, Oat, Wild: Postemergence
Summary of the method: as §3

rice (Oryza sativa) = test: Test B1 flooded paddy test, rice; details: 250 g ai/ha, Flood, applied to paddy water, 2-leaf stage, visually evaluated after 10 to 14 days
Excerpt: (§4) A dash (-) response means no test result.

corn (Zea mays) [16] = test: Test A1 postemergence, corn; details: for Plant response rating, Corn: Postemergence
Summary of the method: as §1

[17] = system: blackgrass (Alopecurus myosuroides); test: Test A1 postemergence, blackgrass; details: 0 to 100 scale (0 no effect, 100 complete control); for Plant response rating, Blackgrass: Postemergence
Summary of the method: as §2

[18] = system: Pigweed, Palmer (palmer amaranth, palmer pigweed, Amaranthus palmeri); test: Test A1 postemergence, Pigweed, Palmer; details: for Plant response rating, Pigweed, Palmer: Postemergence
Summary of the method: as §3

[19] = system: horseweed (Erigeron canadensis); test: Test A1 postemergence, horseweed; details: for Plant response rating, Horseweed: Postemergence
Summary of the method: as §2

[20] = system: Ryegrass, Italian (Italian ryegrass, Lolium multiflorum); test: Test A1 postemergence, Ryegrass, Italian; details: for Plant response rating, Ryegrass, Italian: Postemergence
Summary of the method: as §2

soybean (Glycine max) [21] = test: Test A1 postemergence, soybean; details: for Plant response rating, Soybean: Postemergence
Summary of the method: as §2

[22] = system: barnyardgrass (Echinochloa crus-galli); test: Test B1 flooded paddy test, barnyardgrass; details: 250 g ai/ha, Flood, applied to paddy water, 2-leaf stage, visually evaluated after 10 to 14 days
Excerpt: as §4

[23] = system: ragweed (common ragweed, Ambrosia artemisiifolia); test: Test A1 postemergence, ragweed; details: for Plant response rating, Ragweed: Postemergence
Summary of the method: as §3

[24] = system: Pigweed, Palmer (palmer amaranth, palmer pigweed, Amaranthus palmeri); test: Test A1 preemergence, Pigweed, Palmer
Summary of the method: as §1

[25] = system: ducksalad (Heteranthera limosa); test: Test B1 flooded paddy test, ducksalad; details: 250 g ai/ha, Flood, applied to paddy water, 2-leaf stage, visually evaluated after 10 to 14 days
Excerpt: as §4

[26] = system: goosegrass (Eleusine indica); test: Test A1 postemergence, goosegrass; details: for Plant response rating, Goosegrass: Postemergence
Summary of the method: as §2

[27] = 31 g ai/ha, 0 to 100 scale (0 no effect, 100 complete control)
[28] = 125 g ai/ha, 0 to 100 scale, 0 no effect, 100 complete control
[29] = 31 g ai/ha, postemergence, 0 to 100 scale (0 no effect, 100 complete control)
[30] = 125 g ai/ha, 0 to 100 scale (0 no effect, 100 complete control), 10 days
[31] = 31 g ai/ha, 0 to 100 scale (0 no effect, 100 complete control), 10 days

Cc1cc(C)c(N(COC(=O)C(C)(C)C)S(=O)(=O)C(F)(F)F)cc1N1CCC2(CCC(C)CC2)C1=O (stereo not drawn) [Compound 401]
Plant response rating, Soybean (soybean (Glycine max) [1]; [27]): 0
Plant response rating, Soybean (soybean (Glycine max) [1]; [28]): 0
Plant response rating, Ryegrass, Italian [2, 27]: 0
Plant response rating, Ryegrass, Italian [2, 28]: 30
Wheat plant response rating [3, 29]: 0
Plant response rating, Wheat [3, 30]: 10
Plant response rating, Ragweed [4, 27]: 0
Plant response rating, Ragweed [4, 28]: 10
Plant response rating, Wheat [5, 27]: 0
Plant response rating, Wheat [5, 28]: 0
Plant response rating, Kochia (kochia (Bassia scoparia) [6]; [27]): 0
Plant response rating, Kochia (kochia (Bassia scoparia) [6]; [28]): 0
Plant response rating, Blackgrass [7, 27]: 0
Plant response rating, Blackgrass [7, 28]: 0
Galium plant response rating [8, 29]: 50
Plant response rating, Galium [8, 30]: 80
Plant response rating, Oat, Wild [9, 27]: 0
Plant response rating, Oat, Wild [9, 28]: 0
Plant response rating, Goosegrass [10, 27]: 0
Plant response rating, Goosegrass [10, 28]: 30
Foxtail, Giant plant response rating [11, 29]: 0
Plant response rating, Foxtail, Giant [11, 30]: 60
Plant response rating, Corn (corn (Zea mays) [12]; [27]): 0
Plant response rating, Corn (corn (Zea mays) [12]; [28]): 20
Plant response rating, Foxtail, Giant [13, 27]: 0
Plant response rating, Foxtail, Giant [13, 28]: 0
Kochia plant response rating (kochia (Bassia scoparia) [14]; [29]): 10
Plant response rating, Kochia (kochia (Bassia scoparia) [14]; [30]): 30
Oat, Wild plant response rating [15, 29]: 0
Plant response rating, Oat, Wild [15, 30]: 30
Plant response rating, Rice (0 to 100 scale, 0 is no effect, 100 is complete control) (rice (Oryza sativa)): 45
Corn plant response rating (corn (Zea mays) [16]; [29]): 10
Plant response rating, Corn (corn (Zea mays) [16]; [30]): 60
Blackgrass plant response rating ([17]; 31 g ai/ha, postemergence): 0
Plant response rating, Blackgrass ([17]; 125 g ai/ha, 10 days): 30
Pigweed, Palmer plant response rating [18, 29]: 0
Plant response rating, Pigweed, Palmer [18, 30]: 30
Horseweed plant response rating [19, 29]: 0
Plant response rating, Horseweed [19, 30]: 0
Ryegrass, Italian plant response rating [20, 29]: 0
Plant response rating, Ryegrass, Italian [20, 30]: 0
Soybean plant response rating (soybean (Glycine max) [21]; [29]): 60
Plant response rating, Soybean (soybean (Glycine max) [21]; [30]): 70
Plant response rating, Barnyardgrass (0 to 100 scale, 0 is no effect, 100 is complete control) [22]: 98
Ragweed plant response rating [23, 29]: 60
Plant response rating, Ragweed [23, 30]: 90
Plant response rating, Pigweed, Palmer [24, 27]: 0
Plant response rating, Pigweed, Palmer [24, 28]: 20
Plant response rating, Ducksalad (0 to 100 scale, 0 is no effect, 100 is complete control) [25]: 45
Goosegrass plant response rating [26, 29]: 0
Plant response rating, Goosegrass [26, 30]: 90

Cc1c(NS(=O)(=O)C(F)(F)F)cc(C2=NOC3CCCC23)c(C)c1C (stereo not drawn) [Compound 335]
Plant response rating, Soybean (soybean (Glycine max) [1]; [27]): 30
Plant response rating, Soybean (soybean (Glycine max) [1]; [28]): 40
Plant response rating, Ryegrass, Italian [2, 27]: 0
Plant response rating, Ryegrass, Italian [2, 28]: 60
Plant response rating, Wheat [3, 31]: 0
Plant response rating, Wheat ([3]; 125 g ai/ha, 0 to 100 scale): 0
Plant response rating, Ragweed [4, 27]: 20
Plant response rating, Ragweed [4, 28]: 90
Plant response rating, Wheat [5, 27]: 0
Plant response rating, Wheat [5, 28]: 0
Plant response rating, Kochia (kochia (Bassia scoparia) [6]; [27]): 20
Plant response rating, Kochia (kochia (Bassia scoparia) [6]; [28]): 60
Plant response rating, Blackgrass [7, 27]: 0
Plant response rating, Blackgrass [7, 28]: 0
Plant response rating, Galium [8, 31]: 50
Plant response rating, Galium ([8]; 125 g ai/ha, 0 to 100 scale): 80
Plant response rating, Oat, Wild [9, 27]: 0
Plant response rating, Oat, Wild [9, 28]: 30
Plant response rating, Goosegrass [10, 27]: 30
Plant response rating, Goosegrass [10, 28]: 70
Plant response rating, Foxtail, Giant [11, 31]: 0
Plant response rating, Foxtail, Giant ([11]; 125 g ai/ha, 0 to 100 scale): 0
Plant response rating, Corn (corn (Zea mays) [12]; [27]): 0
Plant response rating, Corn (corn (Zea mays) [12]; [28]): 60
Plant response rating, Foxtail, Giant [13, 27]: 60
Plant response rating, Foxtail, Giant [13, 28]: 100
Plant response rating, Kochia (kochia (Bassia scoparia) [14]; [31]): 10
Plant response rating, Kochia (kochia (Bassia scoparia) [14]; 125 g ai/ha, 0 to 100 scale): 60
Plant response rating, Oat, Wild [15, 31]: 0
Plant response rating, Oat, Wild ([15]; 125 g ai/ha, 0 to 100 scale): 0
Plant response rating, Rice (0 to 100 scale, 0 is no effect, 100 is complete control) (rice (Oryza sativa)): 45
Plant response rating, Corn (corn (Zea mays) [16]; [31]): 0
Plant response rating, Corn (corn (Zea mays) [16]; 125 g ai/ha, 0 to 100 scale): 0
Plant response rating, Blackgrass ([17]; 31 g ai/ha, 10 days): 0
Plant response rating, Blackgrass ([17]; 125 g ai/ha): 10
Plant response rating, Pigweed, Palmer [18, 31]: 20
Plant response rating, Pigweed, Palmer ([18]; 125 g ai/ha, 0 to 100 scale): 30
Plant response rating, Horseweed [19, 31]: 40
Plant response rating, Horseweed ([19]; 125 g ai/ha, 0 to 100 scale): 70
Plant response rating, Ryegrass, Italian [20, 31]: 0
Plant response rating, Ryegrass, Italian ([20]; 125 g ai/ha, 0 to 100 scale): 30
Plant response rating, Soybean (soybean (Glycine max) [21]; [31]): 0
Plant response rating, Soybean (soybean (Glycine max) [21]; 125 g ai/ha, 0 to 100 scale): 30
Plant response rating, Barnyardgrass (0 to 100 scale, 0 is no effect, 100 is complete control) [22]: 95
Plant response rating, Ragweed [23, 31]: 50
Plant response rating, Ragweed ([23]; 125 g ai/ha, 0 to 100 scale): 80
Plant response rating, Pigweed, Palmer [24, 27]: 100
Plant response rating, Pigweed, Palmer [24, 28]: 100
Plant response rating, Ducksalad (0 to 100 scale, 0 is no effect, 100 is complete control) [25]: 70
Plant response rating, Goosegrass [26, 31]: 0
Plant response rating, Goosegrass ([26]; 125 g ai/ha, 0 to 100 scale): 10
